From article PMC11977230, “Coevolving residues distant from the ligand binding site are involved in GAF domain function” (Communications Chemistry, 2025)

Tests used:
[1] = target: T1, WT PDE5 GAFa domain biosensor (GFP^2-GAFa(I159-N316)-RLuc) (Homo sapiens, UniProt O76074); assay: BRET-based GAFa domain conformational biosensor, cGMP dose-response (WT); type: biochemical
T1 construct: plasmids expressing the GAFa domain-based (GFP^2-GAFa(I159-N316)-RLuc); made in house; host or cells: HEK293T cells, transfected; cleared lysate used, not purified
Text: (§1) Having observed alterations in the structural dynamics in the GAFa domain of PDE5 upon L267A and F295A mutations using MD simulations, we then proceeded to determine the impact of these mutations experimentally. […] (Fig. 4A). Broadly, these changes include a close juxtaposition of the sheet β3 and helix α4 leading to a “closing” of the cGMP binding site, an “inward” movement of sheet β1 and β2 towards the cGMP binding site and an “outward” movement of the loop β2/β3 (Fig. 4A, left panel). Additionally, cGMP binding is associated with a close juxtapositioning of helices α2 and α5 at the N- and C-termini of the GAFa domain, likely associated with the transduction of the allosteric signal from the GAFa domain to the catalytic domain in PDE5 (Fig. 4A, right panel). We decided to take advantage of the latter to monitor cGMP-binding induced conformational change in the GAFa domain through an increase in the BRET efficiency of the GAFa domain biosensor that we have described previously[24] (Fig. 4B). BRET is a biophysical technique that involves resonance energy transfer between a bioluminescent donor and a fluorescent acceptor, the extent of which is dependent on the spectral overlap, distance, and relative orientation between the two reporters. […]

[2] = target: T2, L267A mutant PDE5 GAFa domain biosensor (Homo sapiens, UniProt O76074, L267A); assay: BRET-based GAFa domain conformational biosensor, cGMP dose-response (L267A); type: biochemical; details: 1 µM cGMP
T2 construct: made in house; host or cells: HEK293T cells, transfected; cleared lysate used, not purified
Text: as §1

[3] = target: T3, F295A mutant PDE5 GAFa domain biosensor (Homo sapiens, UniProt O76074, F295A); assay: BRET-based GAFa domain conformational biosensor, cGMP dose-response (F295A); type: biochemical; details: 1 µM cGMP
T3 construct: made in house; host or cells: HEK293T cells, transfected; cleared lysate used, not purified
Text: as §1

[4] = target: T4, WT full-length PDE5A2 biosensor (GFP^2-PDE5A2-RLuc) (Homo sapiens, UniProt O76074); assay: BRET-based full-length PDE5A2 conformational biosensor, cGMP dose-response (WT); type: biochemical
T4 construct: the GAFa domain (I159-N316) or the full-length PDE5A2, were flanked by the green fluorescent protein 2 (GFP^2); made in house; host or cells: HEK293T cells, transfected; cleared lysate used, not purified
Text: (§2) Having elucidated the impact of the L267A and F295A mutations in the isolated GAFa domain, we aimed to investigate their effect on the cGMP-binding induced conformational change in the full-length PDE5 protein. For this, we incorporated the mutations in our previously described BRET-based, full-length PDE5A2 biosensor (Fig. 5A) that reports a conformational change upon cGMP binding to the GAFa, but not the catalytic, domain in the protein[25].
(§3) The design of the BRET^2-based GAFa and full-length PDE5 (A2 isoform) biosensors was described previously[24],[25]. […]
(§4) All assays were performed at 37 °C in 96-well, white, flat-bottom plates. […] Bioluminescence spectra of the WT or the mutant biosensors were acquired over wavelengths ranging between 385 and 665 nm utilizing a grating-based system with 15 nm integration step size, with each individual measurement acquired for 1 s using a Tecan SPARK® multimode microplate reader (Tecan, Switzerland). BRET was determined as a ratio of GFP^2 and RLuc emission, either in the absence or in the presence of the indicated concentrations of cGMP, following a 30-min incubation at 37 °C. Bioluminescence and BRET were measured following the addition of the RLuc substrates, either coelenterazine 400a or Prolume purple (NanoLight Technology, Prolume Ltd., USA). […]

[5] = target: L267A mutant full-length PDE5A2 biosensor (Homo sapiens, UniProt O76074, L267A); assay: BRET-based full-length PDE5A2 conformational biosensor, cGMP dose-response (L267A); type: biochemical
Text: as §2, §3, §4

[6] = target: F295A mutant full-length PDE5A2 biosensor (Homo sapiens, UniProt O76074, F295A); assay: BRET-based full-length PDE5A2 conformational biosensor, cGMP dose-response (F295A); type: biochemical
Text: as §2, §3, §4

[7] = system: isolated PDE5 GAFa domain; details: cited from earlier work
[8] = system: GAFb domain of PDE2A; parameters: method as in PMID 15210692; details: cGMP-binding GAFb domain of PDE2A; cited from earlier work
[9] = 30 min incubation, mean ± S.D., three experiments, read-out: EC50 of cGMP-induced conformational change (decrease in BRET)

change in BRET in the presence of cGMP ([1]; 1 µM cGMP): increase in BRET
EC50 ([1]; read-out: EC50 of cGMP-induced conformational change (increase in BRET), HEK293T cell lysate, 30 min, 37 °C, mean ± S.D., four experiments): 19 ± 13 nM
EC50 [4, 9]: 73 ± 20 nM
maximum BRET change ([4]; cGMP dose-response): -26.60 ± 3.42%
EC50 [5, 9]: 181 ± 30 nM
maximum BRET change ([5]; cGMP dose-response): −17.43 ± 1.31%
EC50 [6, 9]: 3400 ± 2100 nM
maximum BRET change ([6]; cGMP dose-response): −12.60 ± 2.37%
Compound: Nc1nc2c(ncn2[C@@H]2O[C@@H]3COP(=O)(O)O[C@H]3[C@H]2O)c(=O)[nH]1 [cGMP]
change in BRET in the presence of cGMP [2]: neither the L267A nor the F295A mutant biosensors showed a discernible change in BRET
change in BRET in the presence of cGMP [3]: neither the L267A nor the F295A mutant biosensors showed a discernible change in BRET
affinity for cGMP ([7]; PDE5 GAFa domain): nanomolar affinity
higher affinity for cGMP compared to cAMP ([7]; isolated PDE5 GAFa domain): thousand-fold
fold higher affinity for cGMP [8]: about 20 fold
